# Source: US20250205362A1, “LIPID NANOPARTICLES” (NATIONAL UNIVERSITY CORPORATION HOKKAIDO UNIVERSITY, priority 2022, published 2025)
# What was measured:
# [1] = Average particle diameter, PdI and zeta potential of lipid nanoparticles (dynamic light scattering); format: physicochemical
# Method: The mean particle diameter (number average value), ζ-mean particle diameter, and polydispersity index (PdI) of the lipid nanoparticles in PBS(−) (pH 7.4), as well as the zeta potential in 10 mM HEPES buffer (pH 7.4), were measured using an analyzing device, Zetasizer Nano ZS ZEN3600 (Malvern), which utilizes dynamic light scattering.
# [2] = pKa of lipid nanoparticles (TNS); conditions: apparent pKa of Fluc mRNA-loaded LNP; 50/10/40/1.5 mol%; Table 5
# Method: The pKa of the lipid nanoparticles was measured using p-Toluenesulfonic acid (TNS). First, TNS (final concentration: 0.75 μM) and lipid nanoparticles (final concentration: 30 μM) were mixed in buffer solutions (200 mL) adjusted to various pH values (pH 3.5 to 9.5). The buffer solutions used were: 20 mM citrate buffer solution, 20 mM sodium phosphate buffer solution, or 20 mM Tris-HCl buffer solution containing 130 mM NaCl. The fluorescence intensity of the prepared mixture was measured using a spectrofluorometer (VarioskanLux, Thermo Fisher Scientific) at the setting of λex=321 nm and λem=447 nm. The highest and lowest measured values were taken as 100% and 0% charge rate, respectively, and the pH showing a 50% charge rate was calculated as the apparent pKa. The percentage of the contained cationically charged pH-sensitive cationic lipid was calculated using the Henderson-Hasselbalch equation.
# TTR gene = assay: Measurement of TTR-KO activity (serum TTR protein, ELISA); format: in vivo, mouse; conditions: FIG. 5; TTR-RNP-ssODN-loaded LNP; mouse serum 7 days after administration
# Summary of the method: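 Female BALB/c mice (4 weeks) received Cas9/sgTTR-RNP-loaded lipid nanoparticles i.v. at the indicated doses. Serum TTR protein measured by ELISA one week later. TTR-KO activity expressed as serum TTR (%) relative to untreated mice set at 100%.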
# BALB/c mice = assay: Measurement of Fluc activity in tissues after iv Fluc mRNA-loaded lipid nanoparticles; format: in vivo, mouse; conditions: Example 1, FIG. 1; Fluc mRNA-loaded LNP 50/10/40/1.5; Balb/c mice iv 0.01 mg mRNA/kg, 6 hours
# Method: First, lipid nanoparticles encapsulating Fluc mRNA (Fluc mRNA-loaded lipid nanoparticles) were intravenously injected into BALB/c mice (female, 4 weeks old) at a dose of 0.01 mg mRNA/kg body weight. Six hours after intravenous injection, the mice were euthanized, and each tissue was collected, frozen in liquid nitrogen, and stored at −80° C. The tissues were homogenized in passive lysis buffer (Promega) using a bead cell disrupter (Micro Smash MS-100R, TOMY Seiko). Tissue debris was removed by centrifugation and the supernatant was collected. Fluc activity in the supernatant was measured using a luciferase assay system (E1500, Promega) according to the manufacturer's protocol. Luminescence was measured using a luminometer (Luminescencer-PSN, ATTO). The protein concentration was determined using a commercially available measurement kit (BCA Protein Assay Kit, Pierce). Fluc activity was expressed as relative light units (RLU) per mg of protein.
# [3] = Encapsulation rate of lipid nanoparticles (Ribogreen); format: physicochemical
# Method: The encapsulation rate of the lipid nanoparticles was calculated by measuring the amount of encapsulated nucleic acid (the amount of ssODN in the case of RNP-ssODN) using an RNA intercalator Ribogreen (manufactured by Life Technologies).
# [4] = Fluc mRNA-loaded LNP, cationic lipid/DSPC/cholesterol/PEG-DMG 50/10/40/1.5 mol%, Table 5
# [5] = TTR-RNP-ssODN-loaded LNP (ssODN-TTR_3-40%), cationic lipid/DSPC/cholesterol/PEG-DMG 50/10/40/3.5 mol%, Table 8
compound,measurement,setting,value
"CCCCCC(CCCCC)CC(=O)OCCCCCCC(O)(CCCCCCOC(=O)CC(CCCCC)CCCCC)CCCCN(CCC)CCC [CL4F8-b-5, 7-(4-(dipropylamino)butyl)-7-hydroxytridecane-1,13-diylbis(3-pentyloctanoate)]",Number-average particle diameter,[1]; [4],68.7 nm
same,PdI,[1]; [4],0.185
same,ζ-average,[1]; [4],106.3 nm
same,ζ-potential,[1]; [4],−5.16 mV
same,Number-average particle diameter,[1]; [5],127.5 nm
same,PdI,[1]; [5],0.128
same,ζ-average,[1]; [5],178.0 nm
same,ζ-potential,[1]; [5],−0.95 mV
same,pKa,[2],6.25
same,serum TTR activity / gene knockout versus CL4F6,TTR gene,lower serum TTR activity and higher gene knockout
same,Fluc activity (gene transfer ability) in liver and spleen,BALB/c mice,equal to or greater than that of CL4F6
same,Encapsulation rate,[3]; [4],91.0%
same,Encapsulation rate,[3]; [5],60.2%
